Columns and labels:
HBL1^E140X = experiment: Growth inhibition assay (CellTiter Glo), HBL1 cells expressing BCL10 E140X; type: cell-based; settings: Homo sapiens, 96 h, read-out: IC50, growth inhibition, BTK inhibitors
Description: (§1) DLBCL cell lines were cultured in exponential condition and the cell growth was determined by CellTiter Glo (Promega). 3000-5000 cells were seeded and cultured in each well of 384 well plate for 96 h and treated with compounds every 48 h. Luminescence was read at the endpoint with the Synergy NEO microplate reader (BioTek). The value of compound treated cells was normalized to their vehicle treated controls and then used to calculate IC50 in GraphPad Prism (RRID:SCR_002798).
(§2) Given the distinct functional profiles, CARD11 dependencies, and MALT1 activation effects of the BCL10 CARD and truncation mutants, the inventors designed experiments to evaluate whether, and to what extent, these mutant BCL10 proteins might confer BTK inhibitor resistance. Isogenic ABC-DLBCL cells expressing BCL10WT, BCL10^R58Q and BCL10^E140X proteins were treated with escalating doses of three chemically distinct covalent BTK inhibitors: ibrutinib, acalabrutinib, or zanubrutinib. The cellular proliferation rates of the treated cells were measured using an ATP fluorescence assay after 96 hours of drug exposure.
(§3) Isogenic BCL10^WT, BCL10^R58Q and BCL10^E140X ABC-DLBCLs were exposed to increasing concentrations of each of these compounds for 96 hours.

[1] = tested on: BCL10^WT expressing ABC-DLBCL xenografts; experiment: Xenograft, ibrutinib treatment, BCL10^WT tumors; type: in vivo, mice; settings: ibrutinib 37mpk, oral gavage, Q.D.
Text: (§4) FIG. 6A-6K illustrate that BCL10 gain-of-function mutant lymphomas are resistant to upstream Bruton's tyrosine kinase (BTK) inhibitors. FIG. 6A illustrates growth inhibition assays of human diffuse large B-cell lymphoma (HBL1) cells and OCI-Ly10 lymphoma cells expressing wild type or mutant BCL10 protein in response to the BTK inhibitor Acalabrutinib. X axis, concentration of compound (M); Y axis, inhibition of cell growth normalized to vehicle treated cells. *p<0.05; **p<0.01; ****p<0.0001; ns, not significant. FIG. 6B illustrates growth inhibition assays of human diffuse large B-cell lymphoma (HBL1) cells and OCI-Ly10 lymphoma cells expressing wild type or mutant BCL10 protein in response to the BTK inhibitor Zanubrutinib. […] FIG. 6D illustrates luciferase activity measured in the MALT1 GloSensor reporter cell lines upon BTK inhibitor Acalabrutinib treatment. […] FIG. 6E illustrates luciferase activity measured in the MALT1 GloSensor reporter cell lines upon BTK inhibitor Zanubrutinib treatment. […] FIG. 6F illustrates luciferase activity measured in the MALT1 GloSensor reporter cell lines upon BTK inhibitor Ibrutinib treatment. […] AUC was calculated with Prism. FIG. 6J graphically illustrates tumor weight measured at the endpoint of tumors formed from xenografts of HBL1 cells expressing WT and mutant BCL10 (n=5-6/group). […]

[2] = tested on: BCL10^E140X expressing ABC-DLBCL xenografts; experiment: Xenograft, ibrutinib treatment, BCL10^E140X tumors; type: in vivo, mice; settings: ibrutinib 37mpk, oral gavage, Q.D.
Text: as §4

HBL1^R58Q = experiment: Growth inhibition assay (CellTiter Glo), HBL1 cells expressing BCL10 R58Q; type: cell-based; settings: Homo sapiens, 96 h, read-out: IC50, growth inhibition, BTK inhibitors
Description: as §1, §2, §3

OCI-LY10^R58Q = experiment: Growth inhibition assay (CellTiter Glo), OCI-Ly10 cells expressing BCL10 R58Q; type: cell-based; settings: Homo sapiens, 96 h, read-out: IC50, growth inhibition, BTK inhibitors
Description: as §1, §2, §3

[3] = tested on: BCL10^R58Q expressing ABC-DLBCL xenografts; experiment: Xenograft, ibrutinib treatment, BCL10^R58Q tumors; type: in vivo, mice; settings: ibrutinib 37mpk, oral gavage, Q.D.
Text: as §4

OCI-LY10^WT = experiment: Growth inhibition assay (CellTiter Glo), OCI-Ly10 cells expressing BCL10 WT; type: cell-based; settings: Homo sapiens, 96 h, read-out: IC50, growth inhibition, BTK inhibitors
Description: as §1, §2, §3

HBL1^WT = experiment: Growth inhibition assay (CellTiter Glo), HBL1 cells expressing BCL10 WT; type: cell-based; settings: Homo sapiens, 96 h, read-out: IC50, growth inhibition, BTK inhibitors
Description: as §1, §2, §3

OCI-LY10^E140X = experiment: Growth inhibition assay (CellTiter Glo), OCI-Ly10 cells expressing BCL10 E140X; type: cell-based; settings: Homo sapiens, 96 h, read-out: IC50, growth inhibition, BTK inhibitors
Description: as §1, §2, §3

[4] = biological target: T1, MALT1 (of the lymphoma cell lysates, detected with anti-MALT1) (UniProt Q9UDY8 2-824, limits assumed); experiment: anti-Flag co-immunoprecipitation from Raji cells, anti-MALT1 blot
T1 construct: Cellular MALT1 co-precipitated or co-fractionated with Flag-BCL10; HBL1 is called a human lymphoma line
T1 sequence (looked up): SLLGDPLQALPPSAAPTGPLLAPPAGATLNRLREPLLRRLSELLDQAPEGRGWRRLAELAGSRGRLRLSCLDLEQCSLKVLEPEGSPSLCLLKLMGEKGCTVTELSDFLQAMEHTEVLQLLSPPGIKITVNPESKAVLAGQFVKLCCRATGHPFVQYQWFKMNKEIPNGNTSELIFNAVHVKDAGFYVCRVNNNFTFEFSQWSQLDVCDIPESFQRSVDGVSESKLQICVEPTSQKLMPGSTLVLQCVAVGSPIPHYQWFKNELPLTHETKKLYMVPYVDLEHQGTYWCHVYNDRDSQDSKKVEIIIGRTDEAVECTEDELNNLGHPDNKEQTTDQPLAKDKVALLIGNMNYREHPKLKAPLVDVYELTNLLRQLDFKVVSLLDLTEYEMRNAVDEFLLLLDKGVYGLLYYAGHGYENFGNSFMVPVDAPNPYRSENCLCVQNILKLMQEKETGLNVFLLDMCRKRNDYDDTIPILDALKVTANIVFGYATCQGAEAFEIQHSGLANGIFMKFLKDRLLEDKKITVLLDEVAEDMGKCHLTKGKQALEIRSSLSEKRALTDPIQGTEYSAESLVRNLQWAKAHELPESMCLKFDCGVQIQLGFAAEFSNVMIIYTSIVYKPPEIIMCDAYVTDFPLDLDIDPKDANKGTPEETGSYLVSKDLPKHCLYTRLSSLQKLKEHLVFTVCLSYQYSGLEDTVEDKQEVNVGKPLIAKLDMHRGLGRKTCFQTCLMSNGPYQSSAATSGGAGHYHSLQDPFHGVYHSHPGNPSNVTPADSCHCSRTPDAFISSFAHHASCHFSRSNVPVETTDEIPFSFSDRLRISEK
Description: Lymphoma cells (10⁸) were collected, washed with cold PBS and resuspended with lysis buffer (1% NP40, 10% glycerol, 150 mM NaCl, 20 mM Tris-HCL pH 7.5, and freshly added protease inhibitors). The lysates were centrifuged at 15,000 g, 4° C. for 15 min and the supernatant was then collected and incubated with 50 μL equilibrated anti-Flag magnetic beads (Sigma-Aldrich Cat #M8823, RRID:AB_2637089) at 4° C. for 3 h. The beads were washed 3 times with lysis buffer and followed by 3 times washing with the lysis buffer without NP40. SDS loading buffer without […] reagent was added and boiled at 95° C. for 5 min. The elution was added for […] (final 10%), and ready to run western blot after boiling at 95° C. for 5 min.
To investigate how the truncation mutants might affect CBM complex formation, Flag-tagged wild type and mutant forms of BCL10 were expressed in Raji cells, which lack constitutive B-cell receptor (BCR) signaling. Anti-Flag co-immunoprecipitations were performed on cell lysates. […] In contrast, there was less binding of MALT1 to BCL10^E140X, as well as to the similar BCL10^{K146Nfs*2} truncation mutant (FIG. 4A).

MALT1 (Ig1-Ig2) = biological target: T2, MALT1 (Ig1-Ig2) (human, UniProt Q9UDY8 125-309); experiment: His pull-down after co-expression in E. coli, Coomassie-stained SDS-PAGE
T2 construct: domain: Ig1-Ig2; also called Ig1-Ig2 construct of MALT1; MALT1 (207-309)
T2 sequence (looked up): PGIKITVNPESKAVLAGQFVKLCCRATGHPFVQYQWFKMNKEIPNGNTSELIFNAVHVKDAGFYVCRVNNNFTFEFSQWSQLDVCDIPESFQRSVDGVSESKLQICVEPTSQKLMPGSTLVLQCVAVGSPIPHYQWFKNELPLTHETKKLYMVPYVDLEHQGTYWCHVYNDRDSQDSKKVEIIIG
Description: The inventors designed experiments to determine whether there were additional MALT1-binding sites on BCL10 at its largely unstructured C-terminus. The C-terminal region was divided into two halves and MALT1 pull-down studies were performed. […] Of note, unlike the interaction between BCL10 CARD and MALT1 death domain (DD) in the filamentous form, the interaction between BCL10 C-terminal region and MALT1 Ig1-Ig2 is monomeric as assessed by gel filtration chromatography of the complex.

Q: Which IC50 (HBL1^E140X) does the source give for `C=CC(=O)N1CCC[C@@H](n2nc(-c3ccc(Oc4ccccc4)cc3)c3c(N)ncnc32)C1` [Ibrutinib] here?
A: The IC50 was 11 nM.

Q: What about the “tumor growth of xenografts” value [1] of the same molecule?
A: The value was “suppressed growth”.

Q: And the “tumor growth of xenografts” value ([1]; listed as ibrutinib)?
A: The value was “expected growth suppression”.

Q: What about the “tumor growth of xenografts” value [2] of the same molecule?
A: Its value is “no significant anti-tumor effect”.

Q: What about the IC50 (HBL1^R58Q) of the same molecule?
A: The IC50 was 6.1 nM.

Q: What about the IC50 (OCI-LY10^R58Q) of the same molecule?
A: Its IC50 is 2.2 nM.

Q: And the “tumor growth of xenografts” value [3]?
A: Its value is “no significant anti-tumor effect”.

Q: And the IC50 (OCI-LY10^WT)?
A: Its IC50 is 0.66 nM.

Q: And the IC50 (HBL1^WT)?
A: The IC50 was 4 nM.

Q: What about the IC50 (OCI-LY10^E140X) of the same molecule?
A: Its IC50 is 3.3 nM.

B1: Flag-BCL10^E140X (other)
chain: MEPTAPSLTEEDLTEVKKDALENLRVYLCEKIIAERHFDHLRAKKILSREDTEEISCRTSSRKRAGKLLDYLQENPKGLDTLVESIRREKTQNFLIQKITDEVLKLRNIKLEHLKGLKCSSCEPFPDGATNNLSRSNSD
notes: Range 1-139 follows from the name E140X (stop codon at position 140); Expressed in Raji and HBL1 cells; also called Flag tagged E140X; truncating mutant at position 140; not shown: Flag tag
Q: Does B1 bind [4]?
A: Result: binds

B2: His-tagged BCL10 (116-164) (other)
chain: GLKCSSCEPFPDGATNNLSRSNSDESNFSEKLRASTVMYHPEGESSTTP
notes: Co-expressed with MALT1 Ig1-Ig2 in E. coli; not shown: His tag
Q: Does B2 bind (MALT1 (Ig1-Ig2))?
A: Result: no binding
